Measurements taken from publication PMC10993414, “Water Quality Monitoring with the Multiplexed Assay MitoOxTox for Mitochondrial Toxicity, Oxidative Stress Response, and Cytotoxicity in AREc32 Cells” (Environmental Science & Technology, 2024).
Like-named read-outs stand apart in the source and are kept apart here.

Assays:
[1] = cited from earlier work
[2] = system: mitochondrial membrane potential (MMP) in AREc32 cells; test: Disruption of mitochondrial membrane potential (m-MPI red/green ratio), MitoOxTox; details: for SRcytotoxicity: specificity ratio of MMP effect: IC10 (ImageXpress)/EC10 (eq 4)
[3] = system: mitochondrial membrane potential (MMP) in AREc32 cells; details: for SRcytotoxicity: human
[4] = system: AREc32 cells; test: Cytotoxicity with ImageXpress high-content imaging, MitoOxTox
[5] = system: AREc32 cells; test: Cytotoxicity (cell confluency) with IncuCyte S3 live cell imaging, MitoOxTox
[6] = system: Nrf2-mediated oxidative stress response pathway (ARE) in AREc32 cells; test: cells; details: Arec32, 24 h, read-out: Oxidative stress response ECIR1.5 (M)
[7] = system: AREc32 cells
[8] = system: AREc32 cells; details: for Cytotoxicity Incucyte IC10: human, 24 h
[9] = logarithm of EC10, AREc32, 24 h exposure
[10] = 10% reduction in cell viability, AREc32, 24 h exposure
[11] = logarithm of IC10, AREc32, 24 h exposure, Corning plates
[12] = 10% reduction of MMP, AREc32, 24 h exposure

## CCCCOCCO [2-Butoxyethanol]
[1]; ref Vaes et al. 1997b
  log Kow [L/L]: 0.83 L/L
[2]; MMP, AREc32, 24 h
  EC10: 10700 µM
[3]; [9]
  MMP inhibition log(EC10 (M)): -1.97 M

## Cc1cc(O)ccc1Cl [4-Chloro-3-methylphenol]
[4]
  Cytotoxicity ImageExpress IC10: 161 µM
  Cytotoxicity ImageExpress log(IC10 (M)): -3.79 M
[5]
  Cytotoxicity Incucyte IC10: 111 µM
[2]
  MMP inhibition EC10: 13.5 µM
  MMP inhibition log(EC10 (M)): -4.87 M

## CCCCCc1ccc(O)cc1 [4-Pentylphenol]
[6]
  EC (induction ratio 1.5): > 0.000385 M
[4]; [10]
  Cytotoxicity ImageExpress IC10: 87.6 µM
[4]; [11]
  Cytotoxicity ImageExpress log(IC10 (M)): -4.06 M
[5]; [10]
  Cytotoxicity Incucyte IC10: 57.1 µM
[1]; ref Vaes et al. 1997b
  log Kow [L/L]: 4.24 L/L
[2]; [12]
  MMP inhibition EC10: 6.16 µM
[2]; [9]
  MMP inhibition log(EC10 (M)): -5.21 M
[2]
  SRcytotoxicity: 14.2

## CCCCCC[C@H]1C(=O)O[C@H](C)[C@H](NC(=O)c2cccc(NC=O)c2O)C(=O)O[C@@H](C)[C@@H]1OC(=O)CC(C)C [Antimycin A]
[6]
  EC (induction ratio 1.5): > 0.000129 M
[4]; [10]
  Cytotoxicity ImageExpress IC10: 43.4 µM
[4]; [11]
  Cytotoxicity ImageExpress log(IC10 (M)): -4.36 M
[5]; [10]
  Cytotoxicity Incucyte IC10: 35.9 µM
[2]; [12]
  MMP inhibition EC10: 0.000755 µM
[2]; [9]
  MMP inhibition log(EC10 (M)): -9.12 M

## COc1ccc2cc3[n+](cc2c1OC)CCc1cc2c(cc1-3)OCO2 [Berberine]
[6]
  EC (induction ratio 1.5): > 0.000135 M
[4]; [10]
  Cytotoxicity ImageExpress IC10: 72.4 µM
[4]; [11]
  Cytotoxicity ImageExpress log(IC10 (M)): -4.14 M
[5]; [10]
  Cytotoxicity Incucyte IC10: 63.5 µM
[2]; [12]
  MMP inhibition EC10: 0.0135 µM
[2]; [9]
  MMP inhibition log(EC10 (M)): -7.87 M
[2]
  SRcytotoxicity: 5365

## N#CC(C#N)=NNc1cccc(Cl)c1 [Carbonyl cyanide 3-chlorophenyl-hydrazone]
[6]
  EC (induction ratio 1.5): > 0.000355 M
[4]; [10]
  Cytotoxicity ImageExpress IC10: 2.31 µM
[4]; [11]
  Cytotoxicity ImageExpress log(IC10 (M)): -5.64 M
[5]; [10]
  Cytotoxicity Incucyte IC10: 1.28 µM
[1]; experimental, ref PhysPropNCCT
  log Kow [L/L]: 3.38 L/L
[2]; [12]
  MMP inhibition EC10: 0.247 µM
[2]; [9]
  MMP inhibition log(EC10 (M)): -6.61 M
[2]
  SRcytotoxicity: 9.4

## N#CC(C#N)=NNc1ccc(OC(F)(F)F)cc1 [Carbonyl cyanide 4-(trifluoromethoxy)phenylhydrazone]
[6]
  EC (induction ratio 1.5): > 6.32e-05 M
[4]; [10]
  Cytotoxicity ImageExpress IC10: 1.75 µM
[4]; [11]
  Cytotoxicity ImageExpress log(IC10 (M)): -5.76 M
[5]; [10]
  Cytotoxicity Incucyte IC10: 0.824 µM
[1]; experimental, ref PhysPropNCCT
  log Kow [L/L]: 3.68 L/L
[2]; [12]
  MMP inhibition EC10: 0.0768 µM
[2]; [9]
  MMP inhibition log(EC10 (M)): -7.11 M
[2]
  SRcytotoxicity: 22.8

## Cc1ccc(-c2c(Cl)nc(C#N)n2S(=O)(=O)N(C)C)cc1 [Cyazofamid]
[6]
  EC (induction ratio 1.5): > 5.41e-05 M
[7]
  Cytotoxicity ImageExpress log(IC10 (M)): no cytotoxicity
[7]; human, 24 h
  Cytotoxicity ImageExpress IC10: > 54.1 µM
[8]
  Cytotoxicity Incucyte log(IC10 (M)): no cytotoxicity
  Cytotoxicity Incucyte IC10: > 54.1 µM
[2]; [12]
  MMP inhibition EC10: 36.7 µM
[2]; [9]
  MMP inhibition log(EC10 (M)): -4.44 M

## COc1cc2c(cc1OC)[C@@H]1C(=O)c3ccc4c(c3O[C@@H]1CO2)C=CC(C)(C)O4 [Deguelin]
[6]
  EC (induction ratio 1.5): > 4.08e-05 M
[4]; [10]
  Cytotoxicity ImageExpress IC10: 28.8 µM
[4]; [11]
  Cytotoxicity ImageExpress log(IC10 (M)): -4.54 M
[5]; [10]
  Cytotoxicity Incucyte IC10: 17.7 µM
[2]; [12]
  MMP inhibition EC10: 0.013 µM
[2]; [9]
  MMP inhibition log(EC10 (M)): -7.89 M
[3]
  SRcytotoxicity: 2215

## CSC1=N[C@@](C)(c2ccccc2)C(=O)N1Nc1ccccc1 [Fenamidone]
[6]
  EC (induction ratio 1.5): > 0.000239 M
[7]; human, 24 h
  Cytotoxicity ImageExpress IC10: 125 µM
  Cytotoxicity ImageExpress log(IC10 (M)): -3.90 M
[8]
  Cytotoxicity Incucyte IC10: 118 µM
[2]; [12]
  MMP inhibition EC10: 13.1 µM
[2]; [9]
  MMP inhibition log(EC10 (M)): -4.88 M
[3]; 24 h
  SRcytotoxicity: 9.5

## Cc1nn(C)c(Oc2ccccc2)c1C=NOCc1ccc(C(=O)OC(C)(C)C)cc1 [Fenpyroximate]
[2]; [12]
  MMP inhibition EC10: 0.00069 µM
[2]; [9]
  MMP inhibition log(EC10 (M)): -9.16 M

## CO/N=C(/C1=NOCCO1)c1ccccc1Oc1ncnc(Oc2ccccc2Cl)c1F [Fluoxastrobin]
[6]
  EC (induction ratio 1.5): > 0.000153 M
[4]; [10]
  Cytotoxicity ImageExpress IC10: > 153 µM
[4]; [11]
  Cytotoxicity ImageExpress log(IC10 (M)): no cytotoxicity
[5]; [10]
  Cytotoxicity Incucyte IC10: 52.1 µM
[2]; [12]
  MMP inhibition EC10: 6.05 µM
[2]; [9]
  MMP inhibition log(EC10 (M)): -5.22 M

## CC1(C)CNC(=NN=C(/C=C/c2ccc(C(F)(F)F)cc2)/C=C/c2ccc(C(F)(F)F)cc2)NC1 [Hydramethylnon]
[6]
  EC (induction ratio 1.5): > 4.04e-05 M
[4]; [10]
  Cytotoxicity ImageExpress IC10: 1.11 µM
[4]; [11]
  Cytotoxicity ImageExpress log(IC10 (M)): -5.96 M
[5]; [10]
  Cytotoxicity Incucyte IC10: 0.878 µM
[2]; [12]
  MMP inhibition EC10: 4.29 µM
[2]; [9]
  MMP inhibition log(EC10 (M)): -5.37 M

## Cc1ccccc1C(=O)Nc1cccc(OC(C)C)c1 [Mepronil]
[6]
  EC (induction ratio 1.5): > 0.000153 M
[7]; human, 24 h
  Cytotoxicity ImageExpress IC10: 72.9 µM
  Cytotoxicity ImageExpress log(IC10 (M)): -4.14 M
[8]
  Cytotoxicity Incucyte IC10: 58.7 µM
[1]; experimental, ref PhysPropNCCT
  log Kow [L/L]: 3.66 L/L
[2]; [12]
  MMP inhibition EC10: 31.2 µM
[2]; [9]
  MMP inhibition log(EC10 (M)): -4.51 M

## COC(=O)N(OC)c1ccccc1COc1ccn(-c2ccc(Cl)cc2)n1 [Pyraclostrobin]
[6]
  EC (induction ratio 1.5): > 0.000103 M
[4]; [10]
  Cytotoxicity ImageExpress IC10: 61.4 µM
[4]; [11]
  Cytotoxicity ImageExpress log(IC10 (M)): -4.21 M
[5]; [10]
  Cytotoxicity Incucyte IC10: 82.4 µM
[1]; experimental, ref PhysPropNCCT
  log Kow [L/L]: 3.99 L/L
[2]; [12]
  MMP inhibition EC10: 0.208 µM
[2]; [9]
  MMP inhibition log(EC10 (M)): -6.68 M
[3]
  SRcytotoxicity: 295.0

## CC(C)(C)c1ccc(CSc2cnn(C(C)(C)C)c(=O)c2Cl)cc1 [Pyridaben]
[6]
  EC (induction ratio 1.5): > 0.000161 M
[7]
  Cytotoxicity ImageExpress log(IC10 (M)): no cytotoxicity
[7]; human, 24 h
  Cytotoxicity ImageExpress IC10: > 161 µM
[8]
  Cytotoxicity Incucyte IC10: 51.4 µM
[1]; experimental, ref PhysPropNCCT
  log Kow [L/L]: 6.37 L/L
[2]; [12]
  MMP inhibition EC10: 0.00273 µM
[2]; [9]
  MMP inhibition log(EC10 (M)): -8.56 M

## CCOCCc1ccc(OCCN=c2[nH]cnc(CC)c2Cl)c(C)c1C [Pyrimidifen]
[6]
  EC (induction ratio 1.5): > 0.000136 M
[4]; [10]
  Cytotoxicity ImageExpress IC10: 56.1 µM
[4]; [11]
  Cytotoxicity ImageExpress log(IC10 (M)): -4.25 M
[5]; [10]
  Cytotoxicity Incucyte IC10: 55.3 µM
[2]; [12]
  MMP inhibition EC10: 0.00271 µM
[2]; [9]
  MMP inhibition log(EC10 (M)): -8.57 M
[2]
  SRcytotoxicity: 20693

## CCc1nn(C)c(C(=O)NCc2ccc(C(C)(C)C)cc2)c1Cl [Tebufenpyrad]
[6]
  EC (induction ratio 1.5): > 0.000214 M
[4]; [10]
  Cytotoxicity ImageExpress IC10: 192 µM
[4]; [11]
  Cytotoxicity ImageExpress log(IC10 (M)): -3.72 M
[5]; [10]
  Cytotoxicity Incucyte IC10: 157 µM
[1]; experimental, ref PhysPropNCCT
  log Kow [L/L]: 4.61 L/L
[2]; [12]
  MMP inhibition EC10: 0.00573 µM
[2]; [9]
  MMP inhibition log(EC10 (M)): -8.24 M
[3]
  SRcytotoxicity: 33496

## Cc1nc(C(F)(F)F)c(C(=O)Nc2c(Br)cc(OC(F)(F)F)cc2Br)s1 [Thifluzamide]
[6]
  EC (induction ratio 1.5): > 3.16e-05 M
[4]; [10]
  Cytotoxicity ImageExpress IC10: 23.4 µM
[4]; [11]
  Cytotoxicity ImageExpress log(IC10 (M)): -4.63 M
[5]; [10]
  Cytotoxicity Incucyte IC10: 11.3 µM
[2]; [12]
  MMP inhibition EC10: 2.92 µM
[2]; [9]
  MMP inhibition log(EC10 (M)): -5.53 M
[2]
  SRcytotoxicity: 8.0

## CON=C(C(=O)OC)c1ccccc1CON=C(C)c1cccc(C(F)(F)F)c1 [Trifloxystrobin]
[6]
  EC (induction ratio 1.5): > 0.000123 M
[7]
  Cytotoxicity ImageExpress log(IC10 (M)): no cytotoxicity
[7]; human, 24 h
  Cytotoxicity ImageExpress IC10: > 123 µM
[8]
  Cytotoxicity Incucyte log(IC10 (M)): no cytotoxicity
  Cytotoxicity Incucyte IC10: > 123 µM
[1]; experimental, ref PhysPropNCCT
  log Kow [L/L]: 4.50 L/L
[2]; [12]
  MMP inhibition EC10: 4.11 µM
[2]; [9]
  MMP inhibition log(EC10 (M)): -5.39 M
